Where two headings read alike, the source gives them in different places.
What was measured:
TSPO [1] = molecular target: T1, TSPO (Homo sapiens, UniProt P30536); details: cited from earlier work
TSPO [2] = molecular target: T1, TSPO; set-up: host or cells: glioma patients (Junck et al; Pappata et al.); details: cited from earlier work
[3] = HPLC radiometabolite analysis of plasma after [18F]DPA-714; type: in vivo, rat; details: mean ± SD
Procedure: Briefly, arterial blood (200 μL) was collected at 2, 12, 30, 60, and 90 min. Following centrifugation, plasma was extracted with acetonitrile:water (340 μL, 7:1, v/v). The mixture was centrifuged and the supernatant used for reversed phase HPLC analysis using 0.1 M aqueous ammonium acetate (NH4)OAc (pH 10) and acetonitrile (30:70; v/v) at 1 mL/min on a C18 Dynamax 250×4.6 mm (Varian) column. Radiochromatographic data were recorded and collected using a radioisotope detector (Bioscan), decay-corrected to time zero of each radiochromatogram, and smoothed using a locally weighted scatter plot smoothing method. The plasma time-activity curve was corrected according to the fraction of unchanged radioligand.

TSPO [4] = molecular target: TSPO (Rattus norvegicus, UniProt P16257); details: for K1/k2: 3-compartment, 4-parameter model; for K1/k2 / k3 / VT: mean ± S.E.; for K1/k2 / k3: N=3; for VT: N=4
Procedure: In this Example Glioma-bearing rats were imaged with [^18F]PBR06 in a microPET system. Dynamic acquisitions were acquired simultaneously upon injection of 70-100 MBq/0.2 mL [^18F]PBR06. Over the course of scanning, arterial blood was collected to derive the input function, with HPLC radiometabolite analysis performed on selected samples for arterial input function correction. Compartmental modeling of the PET data was performed using the corrected arterial input function. Specific tumor cell binding of PBR06 was evaluated by radioligand displacement of [^3H]PK 11195 with PBR06 in vitro and by displacement of [^18F]PBR06 with excess PBR06 in vivo. Immediately following imaging, tumor tissue and adjacent healthy brain were harvested for assay of TSPO protein levels by western blotting and immunohistochemistry.
PET/CT imaging was performed within 24 h of MR imaging in rats with confirmed tumors. Tumor-bearing rats were administered ˜70-100 MBq/0.2 mL [^18F]PBR06 via a jugular catheter while in a microPET Focus 220 (Siemens Preclinical Solutions, Knoxville, Tenn., USA). Dynamic images (90 min) were collected, followed by CT (microCAT II, Siemens Preclinical Solutions) for attenuation correction. For displacement studies, cold PBR06 (10 mg/kg) was injected via jugular catheter 30 min after radiotracer administration.
The dynamic PET acquisition was divided into twelve, five-second frames for the first minute, followed by 89 sixty-second frames for the duration of the scan. Data from all possible lines of response (LOR) were saved in the list mode raw data format. The raw data was then binned into 3D sinograms with a span of 3 and ring difference of 47. The images were reconstructed into transaxial slices (128×128×95) with voxel sizes of 0.095×0.095×0.08 cm^3, after applying scatter and attenuation corrections, using an iterative ordered subsets expectation maximization (OS-EM 2D) algorithm with 16 subsets and 4 iterations. Attenuation correction was accomplished by generating an attenuation map (sinogram) from the CT image. The CT image was first co-registered with the microPET image, segmented into air, soft tissue, and bone, and then projected into sinograms with a span of 47 and ring difference of 23.
Immediately following administration of [^18F]PBR06, arterial blood samples (50 μL) were collected at 10 s intervals during the first minute of scanning, followed by collection at 90 s and 2, 8, 12, 20, 30, 45, 60, 75, and 90 min. Plasma radioactivity was measured by first centrifuging blood samples (50 μL) at 14,000 rpm for 5 min in a microcentrifuge. Next, plasma (15 μL) was removed and measured in a NaI well counter (Capintec, Ramsey, N.J., USA).
Time-activity curves (TACs) were generated by manually segmenting three-dimensional volumes of interest over tumor and contralateral brain using ASIPro (Siemens Preclinical Solutions), avoiding areas of central necrosis if present. The arterial input function (AIF) was computed from plasma sampling during imaging and corrected for metabolism of the parent ligand. A 3-compartment, 4-rate constant kinetic model was used to characterize [^18F]PBR06 pharmacokinetics as previously described. Using the COMKAT software package, model parameters were estimated for constants for influx (K1) and efflux (k2) rates of radioligand diffusion between plasma and tissue compartments, and exchange between specific (k3) and non-specific binding (k4) compartments. Modeling was carried out for whole brain (excluding tumor) and tumor, individually, by fitting TACs of each region.
To evaluate the in vivo TSPO specificity of [^18F]PBR06, we carried out displacement studies in C6-bearing rats using the cold analog, PBR06.

[5] = HPLC radiometabolite analysis of plasma after [18F]PBR06; type: in vivo, rat
Procedure: Blood samples (200 μL) were collected (2, 25, 45 min) for radiometabolite analysis. Following centrifugation, plasma was extracted with acetonitrile:water (340 μL, 7.5:1, v/v). The mixture was centrifuged and the supernatant used for HPLC analysis. Radioanalysis was conducted as is known in the art. Radiochromatographic data were recorded and collected using a radioisotope detector (Bioscan, Washington, D.C., USA), decay-corrected to time zero of each radiochromatogram, and smoothed using a locally weighted scatter plot smoothing (LOWESS) method. The plasma time-activity curve (TAC) was corrected with the fraction of unchanged radioligand.
Arterial blood samples were collected to assay [^18F]PBR06 radiometabolites for correction of the AIF. FIG. 12 illustrates a typical activity corrected reversed-phase HPLC trace of a blood sample collected two minutes following injection of [^18F]PBR06. At this time point we noted the presence of both ^18F^− (retention time 2.8 min) and the parent ligand (10.1 min) in a respective ratio of ˜1:3.

[6] = at 45 minutes, after infusion of PBR06 at 30 minutes

T1 sequence (P30536 whole entry): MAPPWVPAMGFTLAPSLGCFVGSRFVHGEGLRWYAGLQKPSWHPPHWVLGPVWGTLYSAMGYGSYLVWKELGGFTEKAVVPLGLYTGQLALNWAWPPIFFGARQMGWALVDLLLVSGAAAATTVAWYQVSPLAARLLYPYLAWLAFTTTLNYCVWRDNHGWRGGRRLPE

CCC(C)N(C)C(=O)c1cc2ccccc2c(-c2ccccc2Cl)n1 (stereo not shown) [PK 11195]
in vitro affinity (in words) (TSPO [1]): in vitro affinity in the low nanomolar range

CN1C(=O)CN=C(c2ccc(Cl)cc2)c2cc(Cl)ccc21 [Ro5-4864]
in vitro affinity (in words) (TSPO [1]): in vitro affinity in the low nanomolar range

CC[C@@H](C)N([11CH3])C(=O)c1cc2ccccc2c(-c2ccccc2Cl)n1 [[^11C]PK 11195]
displaceable fraction of tracer with nonradioactive ligand (TSPO [2]; glioma patient (Pappata et al.)): less than 30% | patients with significantly elevated uptake in gliomas vs contralateral normal brain (TSPO [2]; human gliomas (Junck et al.)): 8/10 | tumor/gray matter ratio (TSPO [2]; human gliomas, in 3/10 patients (Junck et al.)): ~2

[11CH3]N1C(=O)CN=C(c2ccc(Cl)cc2)c2cc(Cl)ccc21 [[^11C]Ro5-4864]
radioactivity in tumor tissue vs normal brain (in words) (TSPO [2]; human gliomas, PET (Junck et al.)): failed to demonstrate higher levels of radioactivity in tumor tissue than in normal brain

CCN(CC)C(=O)Cc1c(-c2ccc(OCC[18F])cc2)nn2c(C)cc(C)nc12 [[^18F]DPA-714]
% 18F- in plasma ([3]; P.I. time 2 (N=7)): 2 ± 3.3% | % Metabolite (hydrophilic radiometabolite) in plasma ([3]; P.I. time 2 (N=7)): 3 ± 3.7% | % 18F- in plasma ([3]; P.I. time 12 (N=7)): 13 ± 6.7% | % Metabolite (hydrophilic radiometabolite) in plasma ([3]; P.I. time 12 (N=7)): 19 ± 5.8% | % [18F]DPA-714 (parent) in plasma ([3]; P.I. time 12 (N=7)): 68 ± 7.4% | % 18F- in plasma ([3]; P.I. time 30 (N=7)): 37 ± 5.4% | % Metabolite (hydrophilic radiometabolite) in plasma ([3]; P.I. time 30 (N=7)): 19 ± 8.8% | % [18F]DPA-714 (parent) in plasma ([3]; P.I. time 30 (N=7)): 44 ± 8.9% | % 18F- in plasma ([3]; P.I. time 60 (N=7)): 50 ± 15.0% | % Metabolite (hydrophilic radiometabolite) in plasma ([3]; P.I. time 60 (N=7)): 23 ± 7.3% | % [18F]DPA-714 (parent) in plasma ([3]; P.I. time 60 (N=7)): 27 ± 6.2% | % 18F- in plasma ([3]; P.I. time 90 (N=5)): 64 ± 12.1% | % Metabolite (hydrophilic radiometabolite) in plasma ([3]; P.I. time 90 (N=5)): 14 ± 3.8% | % [18F]DPA-714 (parent) in plasma ([3]; P.I. time 90 (N=5)): 22 ± 17.8%

COc1ccc(OC)c(CN(C(=O)C[18F])c2ccccc2Oc2ccccc2)c1 [[^18F]PBR06]
tracer distribution tumor vs contralateral brain (in words) (TSPO [4]; C6 glioma-bearing rats): preferentially accumulate in tumors with modest uptake in contralateral brain | tumor activity after PBR06 infusion, % of maximum/peak tumor uptake (TSPO [4]; PBR06 10 mg/kg i.v. 30 min after tracer): approximately 25% | K1/k2 (TSPO [4]; brain): 6.164 ± 2.049 mL/g | k3 (TSPO [4]; brain): 0.0714 ± 0.0261 min⁻¹ | VT (TSPO [4]; brain): 13.07 ± 3.901 mL/g | k4 (TSPO [4]; brain, mean, N=3 (S.E. in next line)): 0.00945 min⁻¹ | displaceable [18F]PBR06 binding (TSPO [4]; infusion of PBR06 10 mg/kg 30 min after tracer, tumor): approximately 75% | total radioactivity in tumor relative to normal brain (TSPO [4]; last 20 minutes of the PET scan): approximately three- to four-fold higher than normal brain | K1/k2 (TSPO [4]; tumor): 5.947 ± 1.982 mL/g | k3 (TSPO [4]; tumor): 0.3870 ± 0.1592 min⁻¹ | VT (TSPO [4]; tumor): 63.90 ± 3.400 mL/g | free 18F− in plasma ([5]; at 2 minutes after injection): 25% | parent ligand [18F]PBR06 in plasma ([5]; at 2 minutes after injection): 75% | free 18F− in plasma ([5]; at 30 minutes): 62% | parent ligand [18F]PBR06 in plasma ([5]; at 30 minutes): 38% | 18F− in plasma [5, 6]: 43% | fraction of [18F]PBR06 in plasma [5, 6]: 57%
